Where two headings read alike, the source gives them in different places. One block for each compound: values may come before it.
Tests used:
CLK2 = target: T1, CLK2 (Homo sapiens, UniProt P49760); assay: CLK2 kinase activity assay (Z-lyte, Ser/Thr 6 peptide); format: biochemical; conditions: recombinant CLK2 kinase, ATP 60 μM; read-out: EC50
T1 construct: purchased Thermo Fisher (Life Technologies), Z'-LYTE Kinase Assay Kits
Protocol: All reactions were performed in duplicate.

BT-549 = assay: CellTiter-Glo Viability Assay, breast cancer; format: cell-based; conditions: Homo sapiens, 96 h; BT-549, breast cancer, four days; read-out: EC50
CAMA1 = assay: CellTiter-Glo Viability Assay, breast cancer; format: cell-based; conditions: Homo sapiens, CAMA-1, 96 h; CAMA1, breast cancer, four days; read-out: EC50
DU4475 = assay: CellTiter-Glo Viability Assay, breast cancer; format: cell-based; conditions: Homo sapiens, DU-4475, 96 h; DU4475, breast cancer, four days; read-out: EC50
HCC1599 = assay: CellTiter-Glo Viability Assay, breast cancer; format: cell-based; conditions: Homo sapiens, 96 h; HCC1599, breast cancer, four days; read-out: EC50
MCF7 = assay: CellTiter-Glo Viability Assay, breast cancer; format: cell-based; conditions: Homo sapiens, 96 h; MCF7, breast cancer, four days; read-out: EC50
MDA-MB-231-Luc = assay: CellTiter-Glo Viability Assay, breast cancer; format: cell-based; conditions: Homo sapiens, 96 h; MDA-MB-231-Luc, breast cancer, four days; read-out: EC50
T47D = assay: CellTiter-Glo Viability Assay, breast cancer; format: cell-based; conditions: Homo sapiens, 96 h, breast cancer, four days, read-out: EC50
ZR-75-1 = assay: CellTiter-Glo Viability Assay, breast cancer; format: cell-based; conditions: Homo sapiens, 96 h; ZR-75-1, breast cancer, four days; read-out: EC50
all 50 cell lines = assay: CellTiter-Glo Viability Assay, average across all cell lines; format: cell-based; conditions: Homo sapiens; across all 50 cell lines; read-out: average EC50 for inhibition of cancer cell proliferation
How it was run: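 4-day proliferation, 37° C/5% CO2; 300-3,000 cells/well; compound in duplicate vs DMSO controls. Panel: breast, colorectal, heme/lymphoid, liver, lung, ovarian, pancreatic, prostate lines. Read-out: CellTiter-Glo ATP luminescence, EC50 from dose-response.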

[1] = test system: colorectal cancer (6 cell lines); assay: CellTiter-Glo Viability Assay, colorectal cancer; format: cell-based; conditions: Homo sapiens, inhibition of cancer cell proliferation
[2] = test system: haematopoietic & lymphoid tumors (13 cell lines); assay: CellTiter-Glo Viability Assay, haematopoietic & lymphoid tumors; format: cell-based; conditions: Homo sapiens, inhibition of cancer cell proliferation
[3] = test system: liver cancer (3 cell lines); assay: CellTiter-Glo Viability Assay, liver cancer; format: cell-based; conditions: Homo sapiens, inhibition of cancer cell proliferation
[4] = test system: lung cancer (4 cell lines); assay: CellTiter-Glo Viability Assay, lung cancer; format: cell-based; conditions: Homo sapiens, inhibition of cancer cell proliferation
[5] = test system: ovarian cancer (4 cell lines); assay: CellTiter-Glo Viability Assay, ovarian cancer; format: cell-based; conditions: Homo sapiens, inhibition of cancer cell proliferation
[6] = test system: pancreatic cancer (8 cell lines); assay: CellTiter-Glo Viability Assay, pancreatic cancer; format: cell-based; conditions: Homo sapiens, inhibition of cancer cell proliferation
[7] = test system: prostate cancer (5 cell lines); assay: CellTiter-Glo Viability Assay, prostate cancer; format: cell-based; conditions: Homo sapiens
CLK3 = CLK3 (Homo sapiens, UniProt P49761); assay: CLK3 kinase activity assay (Z-lyte, Ser/Thr 18 peptide)
[8] = HCT-116, HCT116 cell line, read-out: Colorectal cancer, EC50 (μM) HCT116
[9] = HT-29, HT29 cell line, read-out: Colorectal cancer, EC50 (μM) HT29
[10] = SW-620, SW620 cell line, read-out: Colorectal cancer, EC50 (μM) SW620
[11] = DLD-1 cell line, read-out: Colorectal cancer, EC50 (μM) DLD-1
[12] = SW48 cell line, read-out: Colorectal cancer, EC50 (μM) SW48
[13] = SW480 cell line, read-out: Colorectal cancer, EC50 (μM) SW480
[14] = DND41, DND-41 cell line, read-out: Haematopoietic & Lymphoid tumors, EC50 (μM) DND-41
[15] = MV4-11, MV-4-11 cell line, read-out: Haematopoietic & Lymphoid tumors, EC50 (μM) MV-4-11
[16] = Rec1, REC-1 cell line, read-out: Haematopoietic & Lymphoid tumors, EC50 (μM) REC-1
[17] = SU-DHL-4, SUDHL4 cell line, read-out: Haematopoietic & Lymphoid tumors, EC50 (μM) SUDHL4
[18] = HL-60 cell line, read-out: Haematopoietic & Lymphoid tumors, EC50 (μM) HL-60
[19] = JM1 cell line, read-out: Haematopoietic & Lymphoid tumors, EC50 (μM) JM1
[20] = JURKAT, Clone E6-1 cell line, read-out: Haematopoietic & Lymphoid tumors, EC50 (μM) JURKAT, Clone E6-1
[21] = JeKo-1 cell line, read-out: Haematopoietic & Lymphoid tumors, EC50 (μM) JeKo-1
[22] = KASUMI-1 cell line, read-out: Haematopoietic & Lymphoid tumors, EC50 (μM) KASUMI-1
[23] = Loucy cell line, read-out: Haematopoietic & Lymphoid tumors, EC50 (μM) Loucy
[24] = MOLT-4 cell line, read-out: Haematopoietic & Lymphoid tumors, EC50 (μM) MOLT-4
[25] = TF-1 cell line, read-out: Haematopoietic & Lymphoid tumors, EC50 (μM) TF-1
[26] = TOLEDO cell line, read-out: Haematopoietic & Lymphoid tumors, EC50 (μM) TOLEDO
[27] = SNU-398, SNU398 cell line, read-out: Liver cancer, EC50 SNU398
[28] = HEPG2 cell line, read-out: Liver cancer, EC50 HEPG2
[29] = PLC/PRF/5 cell line, read-out: Liver cancer, EC50 PLC/PRF/5
[30] = A-427, A427 cell line, read-out: Lung cancer, EC50 (μM) A427
[31] = HCC78, HCC-78 cell line, read-out: Lung cancer, EC50 (μM) HCC-78
[32] = NCI-H460 cell line, read-out: Lung cancer, EC50 (μM) NCI-H460
[33] = NCI-H522 cell line, read-out: Lung cancer, EC50 (μM) NCI-H522
[34] = PA-1, PA1 cell line, read-out: Ovarian cancer, EC50 (μM) PA1
[35] = TOV112D, TOV-112D cell line, read-out: Ovarian cancer, EC50 (μM) TOV-112D
[36] = OV-90 cell line, read-out: Ovarian cancer, EC50 (μM) OV-90
[37] = OVCAR-3 cell line, read-out: Ovarian cancer, EC50 (μM) OVCAR-3
[38] = BXPC-3, BxPC3 cell line, read-out: Pancreatic cancer, EC50 BxPC3
[39] = CAPAN-1, Capan1 cell line, read-out: Pancreatic cancer, EC50 Capan1
[40] = Capan-2, Capan2 cell line, read-out: Pancreatic cancer, EC50 Capan2
[41] = MIA PaCa-2 cell line, read-out: Pancreatic cancer, EC50 MIA PaCa-2
[42] = PANC 05.04 cell line, read-out: Pancreatic cancer, EC50 PANC 05.04
[43] = PANC-1 cell line, read-out: Pancreatic cancer, EC50 PANC-1
[44] = UPAFII cell line, read-out: Pancreatic cancer, EC50 UPAFII
[45] = DU-145, read-out: Prostate cancer EC50 Du-145
[46] = PC-3, PC3 cell line, inhibition of cancer cell proliferation, read-out: Prostate cancer EC50 PC3
[47] = 22Rv1 cell line, inhibition of cancer cell proliferation, read-out: Prostate cancer EC50 22Rv1
[48] = LNCap clone FGC cell line, inhibition of cancer cell proliferation, read-out: Prostate cancer EC50 LNCap clone FGC
[49] = VCaP (Sigma) cell line, inhibition of cancer cell proliferation, read-out: Prostate cancer EC50 VCaP (Sigma)

CLK3, sequence (P49761 whole entry): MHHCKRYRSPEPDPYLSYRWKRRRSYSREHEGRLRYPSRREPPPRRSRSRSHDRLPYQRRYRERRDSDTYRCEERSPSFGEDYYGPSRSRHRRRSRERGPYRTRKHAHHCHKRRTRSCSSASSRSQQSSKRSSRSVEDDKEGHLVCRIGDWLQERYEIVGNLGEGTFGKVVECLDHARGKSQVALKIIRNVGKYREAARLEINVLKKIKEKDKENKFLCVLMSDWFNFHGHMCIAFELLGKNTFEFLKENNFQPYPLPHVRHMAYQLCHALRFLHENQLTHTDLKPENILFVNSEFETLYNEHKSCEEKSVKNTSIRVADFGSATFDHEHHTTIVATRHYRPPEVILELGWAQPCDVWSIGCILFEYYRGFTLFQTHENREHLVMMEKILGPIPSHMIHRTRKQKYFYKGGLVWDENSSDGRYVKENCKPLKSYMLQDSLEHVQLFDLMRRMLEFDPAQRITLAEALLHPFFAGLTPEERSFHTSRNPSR
T1 sequence (P49760 whole entry): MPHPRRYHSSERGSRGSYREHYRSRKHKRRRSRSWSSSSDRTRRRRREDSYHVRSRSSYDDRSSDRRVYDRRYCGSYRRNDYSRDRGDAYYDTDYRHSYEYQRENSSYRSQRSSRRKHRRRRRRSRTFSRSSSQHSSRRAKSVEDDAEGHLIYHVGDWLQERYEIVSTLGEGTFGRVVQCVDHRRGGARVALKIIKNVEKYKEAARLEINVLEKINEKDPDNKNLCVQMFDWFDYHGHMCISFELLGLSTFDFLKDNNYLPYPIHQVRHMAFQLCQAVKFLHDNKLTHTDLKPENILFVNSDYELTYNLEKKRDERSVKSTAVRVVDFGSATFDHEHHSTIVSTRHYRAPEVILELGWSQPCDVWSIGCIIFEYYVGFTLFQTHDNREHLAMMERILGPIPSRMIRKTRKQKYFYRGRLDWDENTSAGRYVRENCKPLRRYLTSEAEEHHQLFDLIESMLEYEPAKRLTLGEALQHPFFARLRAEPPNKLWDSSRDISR

EC50 (CLK2): 4.9 nM
EC50 (BT-549): 1550 nM
EC50 (CAMA1): 2650 nM
EC50 (DU4475): 1370 nM
EC50 (HCC1599): 1050 nM
EC50 (MCF7): 4120 nM
EC50 (MDA-MB-231-Luc): 3050 nM
EC50 (T47D): 7090 nM
EC50 (ZR-75-1): 2960 nM
EC50 [1, 8]: 0.904 µM
EC50 [1, 9]: 1.32 µM
EC50 [1, 10]: 0.798 µM
EC50 [1, 11]: 1.1 µM
EC50 [1, 12]: 0.394 µM
EC50 [1, 13]: 1.7 µM
EC50 [2, 14]: 0.538 µM
EC50 [2, 15]: 0.542 µM
EC50 [2, 16]: 0.203 µM
EC50 [2, 17]: 0.514 µM
EC50 [2, 18]: 2.46 µM
EC50 [2, 19]: 0.21 µM
EC50 [2, 20]: 1.26 µM
EC50 [2, 21]: 0.259 µM
EC50 [2, 22]: 1.16 µM
EC50 [2, 23]: 0.916 µM
EC50 [2, 24]: 1.35 µM
EC50 [2, 25]: 3.93 µM
EC50 [2, 26]: 0.337 µM
EC50 [3, 27]: 177 nM
EC50 [3, 28]: 6940 nM
EC50 [3, 29]: 4290 nM
EC50 [4, 30]: 1.12 µM
EC50 [4, 31]: 3.41 µM
EC50 [4, 32]: 1.17 µM
EC50 [4, 33]: 0.522 µM
EC50 [5, 34]: 1.36 µM
EC50 [5, 35]: 1.43 µM
EC50 [5, 36]: 3.65 µM
EC50 [5, 37]: 0.866 µM
EC50 [6, 38]: 1250 nM
EC50 [6, 39]: 950 nM
EC50 [6, 40]: 1160 nM
EC50 [6, 41]: 759 nM
EC50 [6, 42]: 2880 nM
EC50 [6, 43]: 2630 nM
EC50 [6, 44]: 1030 nM
EC50 [7, 45]: 1480 nM
EC50 [7, 46]: 1640 nM
EC50 [7, 47]: 643 nM
EC50 [7, 48]: 7840 nM
EC50 [7, 49]: 525 nM
EC50 (CLK3): 38.2 nM
SMILES: Cc1cc2ncc(-c3ccc4cnc(NC(=O)c5ccnc(N6CCN(C)CC6)c5)cc4c3)cc2[nH]1 [Compound 87]
EC50 (all 50 cell lines): 1830 nM

EC50 (CLK2): 1.6 nM
EC50 (BT-549): 496 nM
EC50 (CAMA1): 788 nM
EC50 (DU4475): 624 nM
EC50 (HCC1599): 510 nM
EC50 (MCF7): 2150 nM
EC50 (MDA-MB-231-Luc): 891 nM
EC50 (T47D): 1350 nM
EC50 (ZR-75-1): 1120 nM
EC50 [1, 8]: 0.465 µM
EC50 [1, 9]: 1.09 µM
EC50 [1, 10]: 0.352 µM
EC50 [1, 11]: 0.481 µM
EC50 [1, 12]: 0.285 µM
EC50 [1, 13]: 0.739 µM
EC50 [2, 14]: 0.774 µM
EC50 [2, 15]: 0.193 µM
EC50 [2, 16]: 0.189 µM
EC50 [2, 17]: 0.899 µM
EC50 [2, 18]: 1.24 µM
EC50 [2, 19]: 0.273 µM
EC50 [2, 20]: 0.863 µM
EC50 [2, 21]: 0.347 µM
EC50 [2, 22]: 0.555 µM
EC50 [2, 23]: 0.617 µM
EC50 [2, 24]: 0.643 µM
EC50 [2, 25]: 0.785 µM
EC50 [2, 26]: 0.25 µM
EC50 [3, 27]: 205 nM
EC50 [3, 28]: 750 nM
EC50 [3, 29]: 1470 nM
EC50 [4, 30]: 0.605 µM
EC50 [4, 31]: 1.12 µM
EC50 [4, 32]: 1.13 µM
EC50 [4, 33]: 0.389 µM
EC50 [5, 34]: 0.585 µM
EC50 [5, 35]: 0.593 µM
EC50 [5, 36]: 1.45 µM
EC50 [5, 37]: 0.37 µM
EC50 [6, 38]: 940 nM
EC50 [6, 39]: 702 nM
EC50 [6, 40]: 1140 nM
EC50 [6, 41]: 461 nM
EC50 [6, 42]: 713 nM
EC50 [6, 43]: 1220 nM
EC50 [6, 44]: 385 nM
EC50 [7, 45]: 806 nM
EC50 [7, 46]: 701 nM
EC50 [7, 47]: 612 nM
EC50 [7, 48]: 1080 nM
EC50 [7, 49]: 1060 nM
EC50 (CLK3): 24.5 nM
SMILES: CN(C)C1CN(c2cc(C(=O)Nc3cc4cc(-c5cnn(C)c5)ccc4cn3)ccn2)C1 [Compound 70]
EC50 (all 50 cell lines): 750 nM
